≈ marks a conversion by molar mass, not a printed value. Calls of active or inactive are those of the source. No cut-off for these calls is given here.
Columns and labels:
Bacillus subtilis [1] = assay: Activity of Bacillus subtilis N-terminal His-tagged ANT(6) expressed in Escherichia coli BL21(DE3) cells assessed as adenylated product by Michaelis-Menten kinetics
Bacillus subtilis [2] = assay: Activity of Bacillus subtilis N-terminal His-tagged ANT(6) expressed in Escherichia coli BL21(DE3) cells assessed as ratio of Kcat to Km of adenylated product by Michaelis-Menten kinetics
Escherichia coli [3] = assay: Antibacterial activity against Escherichia coli BL21(DE3) expressing ANT(6); type: functional
Serratia marcescens = assay: Activity of Serratia marcescens ANT(3'')-1i/AAC(6')-2d expressed in Escherichia coli BL21(DE3) cells assessed as ratio of Kcat to Km of ANT(3'')-1i domain catalysed adenylated product by steady state kinetic analysis
Escherichia coli [4] = assay: Antibacterial activity against Escherichia coli BL21(DE3) harboring pET plasmid in streptidine; type: functional
Escherichia coli [5] = assay: Antibacterial activity against Escherichia coli; type: functional
Escherichia coli [6] = assay: Antibacterial activity against Escherichia coli incubated for 12 hrs in presence of 2-deoxystreptidine; type: functional
Escherichia coli [7] = assay: Antibacterial activity against Escherichia coli BL21(DE3) expressing Bacillus subtilis N-terminal His-tagged ANT(6) in presence of streptidine; type: functional
Escherichia coli [8] = assay: Antibacterial activity against Escherichia coli BL21(DE3); type: functional
Escherichia coli [9] = assay: Antibacterial activity against Escherichia coli in presence of streptidine; type: functional
Escherichia coli [10] = assay: Antibacterial activity against Escherichia coli BL21(DE3) expressing Bacillus subtilis N-terminal His-tagged ANT(6) incubated for 12 hrs in presence of 2-deoxystreptidine; type: functional
Escherichia coli [11] = assay: Antibacterial activity against Escherichia coli BL21(DE3) harboring pET plasmid incubated for 12 hrs in presence of 2-deoxystreptidine; type: functional
Escherichia coli [12] = assay: Antibacterial activity against Escherichia coli incubated for 12 hrs; type: functional
Escherichia coli [13] = assay: Antibacterial activity against Escherichia coli BL21(DE3) expressing Bacillus subtilis N-terminal His-tagged ANT(6) incubated for 12 hrs; type: functional
Escherichia coli [14] = assay: Antibacterial activity against Escherichia coli BL21(DE3) harboring pET plasmid incubated for 12 hrs; type: functional

Compound: Nc1ncnc2c1ncn2[C@@H]1O[C@H](COP(=O)(O)OP(=O)(O)O)[C@@H](O)[C@H]1O
- Activity (Bacillus subtilis [1]): inactive

Compound: Nc1ncnc2c1ncn2[C@@H]1O[C@H](COP(=O)(O)OP(=O)(O)OP(=O)(O)O)[C@@H](O)[C@H]1O
- kcat/Km (Bacillus subtilis [2]): 2.1 ×10² /s/M
- Activity (Bacillus subtilis [1]): Active
- Km (Bacillus subtilis [1]): 84 µM
- kcat (Bacillus subtilis [1]): 0.018 s⁻¹

Compound: CN[C@@H]1[C@H](O[C@H]2[C@H](O[C@H]3[C@H](O)[C@@H](O)[C@H](N=C(N)N)[C@@H](O)[C@@H]3N=C(N)N)O[C@@H](C)[C@]2(O)C=O)O[C@@H](CO)[C@H](O)[C@H]1O [STREPTOMYCIN]
- MIC90 (Escherichia coli [3]): > 200 µg/mL
- kcat/Km (Bacillus subtilis [2]): 9.2 ×10² /s/M
- kcat/Km (Serratia marcescens): 3.2 ×10⁵ /s/M
- MIC90 (Escherichia coli [4]): 5 µg/mL (≈ 8.6 µM)
- Km (Bacillus subtilis [1]): 38 µM
- kcat (Bacillus subtilis [1]): 0.03 s⁻¹
- MIC90 (Escherichia coli [5]): 5 µg/mL (≈ 8.6 µM)
- MIC90 (Escherichia coli [6]): 2 µg/mL
- MIC90 (Escherichia coli [7]): 10 µg/mL
- MIC90 (Escherichia coli [8]): 5 µg/mL (≈ 8.6 µM)
- MIC90 (Escherichia coli [9]): 5 µg/mL
- MIC90 (Escherichia coli [10]): 100 µg/mL
- MIC90 (Escherichia coli [11]): 100 µg/mL

Compound: Nc1nc2c(ncn2[C@@H]2O[C@H](COP(=O)(O)OP(=O)(O)OP(=O)(O)O)[C@@H](O)[C@H]2O)c(=O)[nH]1
- Activity (Bacillus subtilis [1]): Active

Compound: Nc1ncnc2c1ncn2[C@@H]1O[C@H](COP(=O)(O)O)[C@@H](O)[C@H]1O
- Activity (Bacillus subtilis [1]): inactive

Compound: O=c1ccn([C@@H]2O[C@H](COP(=O)(O)OP(=O)(O)OP(=O)(O)O)[C@@H](O)[C@H]2O)c(=O)[nH]1
- Activity (Bacillus subtilis [1]): Active

Compound: NC[C@H]1O[C@H](O[C@H]2[C@H](O)[C@@H](O[C@H]3O[C@H](CO)[C@@H](O)[C@H](N)[C@H]3O)[C@H](N)C[C@@H]2N)[C@H](O)[C@@H](O)[C@@H]1O
- Activity (Bacillus subtilis [1]): inactive

Compound: Nc1ccn([C@@H]2O[C@H](COP(=O)(O)OP(=O)(O)OP(=O)(O)O)[C@@H](O)[C@H]2O)c(=O)n1
- Activity (Bacillus subtilis [1]): Active

Compound: N[C@@H]1C[C@H](N)[C@@H](O)[C@H](O)[C@H]1O
- MIC90 (Escherichia coli [12]): > 100 µg/mL
- MIC90 (Escherichia coli [13]): > 100 µg/mL

Compound: N=C(N)N[C@@H]1[C@@H](O)[C@H](NC(=N)N)[C@@H](O)[C@H](O)[C@H]1O
- MIC90 (Escherichia coli [12]): > 100 µg/mL
- kcat/Km (Bacillus subtilis [2]): 1.2 M⁻¹ s⁻¹
- Km (Bacillus subtilis [1]): 600 µM
- kcat (Bacillus subtilis [1]): 0.0006 s⁻¹
- MIC90 (Escherichia coli [13]): > 200 µg/mL
- MIC90 (Escherichia coli [14]): > 100 µg/mL

Compound: NC[C@H]1O[C@H](O[C@H]2[C@H](O[C@@H]3O[C@H](CO)[C@@H](O)[C@H]3O)[C@@H](O)[C@H](N)C[C@@H]2N)[C@H](N)[C@@H](O)[C@@H]1O
- Activity (Bacillus subtilis [1]): inactive

Compound: Nc1ncnc2c1ncn2[C@@H]1O[C@H](COP(=O)(O)CP(=O)(O)OP(=O)(O)O)[C@@H](O)[C@H]1O
- Activity (Bacillus subtilis [1]): inactive

Reference: ChEMBL document CHEMBL3779814, “6-O-Nucleotidyltransferase: an aminoglycoside-modifying enzyme specific for streptomycin/streptidine” (2016)
